{"source": "patent US12077503B2", "about": "“Substituted cyclic amides and their use as herbicides” (FMC CORPORATION, priority 2015, dated 2024)", "assay_type_in_all_cases": "in vivo", "key": {"Kochia (Kochia scoparia) [1]": {"tested_on": "Kochia (Kochia scoparia)", "test": "Test A preemergence", "conditions": "Bassia scoparia, pre-emergence, 240 h", "how_it_was_run": "(§1)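 Preemergence soil spray on seeded pots or post-emergence spray on 1–2 leaf plants, in loam–sand blend. Greenhouse ~10 d. Visual rating 0–100 against untreated plants.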"}, "[2]": {"tested_on": "barnyardgrass (Echinochloa crus-galli)", "test": "Test A preemergence", "conditions": "Echinochloa crus-galli, pre-emergence, 240 h", "how_it_was_run": "as §1"}, "[3]": {"tested_on": "giant foxtail (Setaria faberii)", "test": "Test A preemergence", "conditions": "Setaria faberi, pre-emergence, 240 h", "how_it_was_run": "as §1"}, "[4]": {"tested_on": "pigweed (Amaranthus retroflexus)", "test": "Test A preemergence", "conditions": "Amaranthus retroflexus, pre-emergence, 240 h"}, "[5]": {"tested_on": "ragweed (common ragweed, Ambrosia elatior)", "test": "Test A preemergence", "conditions": "Ambrosia artemisiifolia, pre-emergence, 240 h", "how_it_was_run": "as §1"}, "[6]": {"tested_on": "ryegrass, Italian (Italian ryegrass, Lolium multiflorum)", "test": "Test A preemergence", "conditions": "Lolium multiflorum, pre-emergence, 240 h", "how_it_was_run": "as §1"}, "[7]": {"tested_on": "Galium (catchweed bedstraw, Galium aparine)", "test": "Test A postemergence", "conditions": "Galium, post-emergence, 240 h, 125 g ai/ha, Postemergence; visual injury after approximately 10 d; 0 to 100 scale where 0 is no effect and 100 is complete control; read-out: Plant response rating, Galium", "how_it_was_run": "as §1"}, "Kochia (Kochia scoparia) [8]": {"tested_on": "Kochia (Kochia scoparia)", "test": "Test A postemergence", "conditions": "Bassia scoparia, post-emergence, 240 h, 125 g ai/ha, Postemergence; visual injury after approximately 10 d; 0 to 100 scale where 0 is no effect and 100 is complete control; read-out: Plant response rating, Kochia", "how_it_was_run": "as §1"}, "[9]": {"tested_on": "barnyardgrass (Echinochloa crus-galli)", "test": "Test A postemergence", "conditions": "Echinochloa crus-galli, post-emergence, 240 h, 125 g ai/ha, Postemergence; visual injury after approximately 10 d; 0 to 100 scale where 0 is no effect and 100 is complete control; read-out: Plant response rating, Barnyardgrass", "how_it_was_run": "as §1"}, "[10]": {"tested_on": "blackgrass (Alopecurus myosuroides)", "test": "Test A postemergence", "conditions": "Alopecurus myosuroides, post-emergence, 240 h, 125 g ai/ha, Postemergence; visual injury after approximately 10 d; 0 to 100 scale where 0 is no effect and 100 is complete control; read-out: Plant response rating, Blackgrass", "how_it_was_run": "as §1"}, "corn (Zea mays)": {"tested_on": "corn (Zea mays)", "test": "Test A postemergence", "conditions": "Zea mays, post-emergence, 240 h, 125 g ai/ha, Postemergence; visual injury after approximately 10 d; 0 to 100 scale where 0 is no effect and 100 is complete control", "how_it_was_run": "as §1"}, "[11]": {"tested_on": "giant foxtail (Setaria faberii)", "test": "Test A postemergence", "conditions": "Setaria faberi, post-emergence, 240 h, 125 g ai/ha, Postemergence; visual injury after approximately 10 d; 0 to 100 scale where 0 is no effect and 100 is complete control; read-out: Plant response rating, Foxtail, Giant", "how_it_was_run": "as §1"}, "[12]": {"tested_on": "pigweed (Amaranthus retroflexus)", "test": "Test A postemergence", "conditions": "Amaranthus retroflexus, post-emergence, 240 h, 125 g ai/ha, Postemergence; visual injury after approximately 10 d; 0 to 100 scale where 0 is no effect and 100 is complete control; read-out: Plant response rating, Pigweed", "how_it_was_run": "as §1"}, "[13]": {"tested_on": "ragweed (common ragweed, Ambrosia elatior)", "test": "Test A postemergence", "conditions": "Ambrosia artemisiifolia, post-emergence, 240 h, 125 g ai/ha, Postemergence; visual injury after approximately 10 d; 0 to 100 scale where 0 is no effect and 100 is complete control; read-out: Plant response rating, Ragweed", "how_it_was_run": "as §1"}, "[14]": {"tested_on": "ryegrass, Italian (Italian ryegrass, Lolium multiflorum)", "test": "Test A postemergence", "conditions": "Lolium multiflorum, post-emergence, 240 h, 125 g ai/ha, Postemergence; visual injury after approximately 10 d; 0 to 100 scale where 0 is no effect and 100 is complete control; read-out: Plant response rating, Ryegrass, Italian", "how_it_was_run": "as §1"}, "[15]": {"tested_on": "wheat (Triticum aestivum)", "test": "Test A postemergence", "conditions": "Triticum aestivum, post-emergence, 240 h, 125 g ai/ha, Postemergence; visual injury after approximately 10 d; 0 to 100 scale where 0 is no effect and 100 is complete control; read-out: Plant response rating, Wheat", "how_it_was_run": "as §1"}, "[16]": {"tested_on": "barnyardgrass (Echinochloa crus-galli)", "test": "Test B flooded paddy test", "conditions": "Echinochloa crus-galli, Flood, 250 g ai/ha; scale of 0 to 100 where 0 is no effect and 100 is complete control; read-out: Barnyardgrass plant response rating", "how_it_was_run": "(§2)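 Percent control, visually estimated after 13–15 d in the greenhouse on a 0–100 basis, compares treated pots with untreated ones; compound was put into paddy water 3 cm above the soil when plants had two leaves.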"}, "[17]": {"tested_on": "ducksalad (Heteranthera limosa)", "test": "Test B flooded paddy test", "conditions": "Heteranthera limosa, Flood, 250 g ai/ha; scale of 0 to 100 where 0 is no effect and 100 is complete control; read-out: Ducksalad plant response rating", "how_it_was_run": "as §2"}, "rice (Oryra sativa)": {"tested_on": "rice (Oryra sativa)", "test": "Test B flooded paddy test", "conditions": "Oryza sativa, Flood, 250 g ai/ha; scale of 0 to 100 where 0 is no effect and 100 is complete control; read-out: Rice plant response rating", "how_it_was_run": "as §2"}, "[18]": {"tested_on": "sedge, umbrella (small-flower umbrella sedge, Cyperus difformis)", "test": "Test B flooded paddy test", "conditions": "Cyperus difformis, 250 g ai/ha, Flood; 0 to 100 scale where 0 is no effect and 100 is complete control; read-out: Sedge, Umbrella plant response rating", "how_it_was_run": "as §2"}}}
{"smiles": "CN1C[C@H](c2cc(F)cc(F)c2)[C@@H](C(=O)Nc2ccc(O)cc2F)C1=O", "note": "[Compound 985]", "values": [{"measurement": "pest or weed control at 125 g/ha", "setting": "Kochia (Kochia scoparia) [1]; 125 g ai/ha, Preemergence, visual injury rating after approximately 10 d, read-out: Kochia plant response rating (0 to 100 scale, 0 is no effect, 100 is complete control)", "value": 0, "unit": "%"}, {"measurement": "pest or weed control at 500 g/ha", "setting": "Kochia (Kochia scoparia) [1]; 500 g ai/ha, preemergence, visual injury rating about 10 d after treatment, 0 to 100 scale (0 no effect, 100 complete control), read-out: Kochia plant response rating", "value": 0, "unit": "%"}, {"measurement": "pest or weed control at 125 g/ha", "setting": "[2]; 125 g ai/ha, Preemergence, visual injury rating after approximately 10 d, read-out: Barnyardgrass plant response rating (0 to 100 scale, 0 is no effect, 100 is complete control)", "value": 0, "unit": "%"}, {"measurement": "pest or weed control at 500 g/ha", "setting": "[2]; 500 g ai/ha, preemergence, visual injury rating about 10 d after treatment, 0 to 100 scale (0 no effect, 100 complete control), read-out: Barnyardgrass plant response rating", "value": 0, "unit": "%"}, {"measurement": "pest or weed control at 125 g/ha", "setting": "[3]; 125 g ai/ha, Preemergence, visual injury rating after approximately 10 d, read-out: Foxtail, Giant plant response rating (0 to 100 scale, 0 is no effect, 100 is complete control)", "value": 0, "unit": "%"}, {"measurement": "pest or weed control at 500 g/ha", "setting": "[3]; 500 g ai/ha, preemergence, visual injury rating about 10 d after treatment, 0 to 100 scale (0 no effect, 100 complete control), read-out: Foxtail, Giant plant response rating", "value": 0, "unit": "%"}, {"measurement": "pest or weed control at 125 g/ha", "setting": "[4]; 125 g ai/ha, Preemergence, visual injury rating after approximately 10 d, read-out: Pigweed plant response rating (0 to 100 scale, 0 is no effect, 100 is complete control)", "value": 0, "unit": "%"}, {"measurement": "pest or weed control at 500 g/ha", "setting": "[4]; 500 g ai/ha, preemergence, visual injury rating about 10 d after treatment, 0 to 100 scale (0 no effect, 100 complete control), read-out: Pigweed plant response rating", "value": 0, "unit": "%"}, {"measurement": "pest or weed control at 125 g/ha", "setting": "[5]; 125 g ai/ha, Preemergence, visual injury rating after approximately 10 d, read-out: Ragweed plant response rating (0 to 100 scale, 0 is no effect, 100 is complete control)", "value": 0, "unit": "%"}, {"measurement": "pest or weed control at 500 g/ha", "setting": "[5]; 500 g ai/ha, preemergence, visual injury rating about 10 d after treatment, 0 to 100 scale (0 no effect, 100 complete control), read-out: Ragweed plant response rating", "value": 0, "unit": "%"}, {"measurement": "pest or weed control at 125 g/ha", "setting": "[6]; 125 g ai/ha, Preemergence, visual injury rating after approximately 10 d, read-out: Ryegrass, Italian plant response rating (0 to 100 scale, 0 is no effect, 100 is complete control)", "value": 0, "unit": "%"}, {"measurement": "pest or weed control at 500 g/ha", "setting": "[6]; 500 g ai/ha, preemergence, visual injury rating about 10 d after treatment, 0 to 100 scale (0 no effect, 100 complete control), read-out: Ryegrass, Italian plant response rating", "value": 0, "unit": "%"}, {"measurement": "pest or weed control at 125 g/ha", "setting": "[7]", "value": 0, "unit": "%"}, {"measurement": "pest or weed control at 125 g/ha", "setting": "Kochia (Kochia scoparia) [8]", "value": 0, "unit": "%"}, {"measurement": "pest or weed control at 125 g/ha", "setting": "[9]", "value": 0, "unit": "%"}, {"measurement": "pest or weed control at 125 g/ha", "setting": "[10]", "value": 0, "unit": "%"}, {"measurement": "Corn plant response rating (crop injury, 0 = no effect, 100 = complete kill) at 125 g/ha", "setting": "corn (Zea mays)", "value": 0, "unit": "%"}, {"measurement": "pest or weed control at 125 g/ha", "setting": "[11]", "value": 0, "unit": "%"}, {"measurement": "pest or weed control at 125 g/ha", "setting": "[12]", "value": 0, "unit": "%"}, {"measurement": "pest or weed control at 125 g/ha", "setting": "[13]", "value": 0, "unit": "%"}, {"measurement": "pest or weed control at 125 g/ha", "setting": "[14]", "value": 0, "unit": "%"}, {"measurement": "plant injury at 125 g/ha", "setting": "[15]", "value": 0, "unit": "%"}, {"measurement": "pest or weed control at 250 g/ha", "setting": "[16]", "value": 0, "unit": "%"}, {"measurement": "pest or weed control at 250 g/ha", "setting": "[17]", "value": 40, "unit": "%"}, {"measurement": "pest or weed control at 250 g/ha", "setting": "rice (Oryra sativa)", "value": 0, "unit": "%"}, {"measurement": "pest or weed control at 250 g/ha", "setting": "[18]", "value": 0, "unit": "%"}]}
